In patent publication US20250101041A1, “POSITIVE ALLOSTERIC MODULATORS OF THE MUSCARINIC ACETYLCHOLINE RECEPTOR M4” (Vanderbilt University, priority 2022, published 2025):

Biological target: T1, human mAChR M4 (Homo sapiens, UniProt P08173)
T1 construct: expressed in transfected cells; host or cells: CHO-K1 (American Type Culture Collection), stably expressing hM4 and Gqi5
T1 sequence (P08173 1-479): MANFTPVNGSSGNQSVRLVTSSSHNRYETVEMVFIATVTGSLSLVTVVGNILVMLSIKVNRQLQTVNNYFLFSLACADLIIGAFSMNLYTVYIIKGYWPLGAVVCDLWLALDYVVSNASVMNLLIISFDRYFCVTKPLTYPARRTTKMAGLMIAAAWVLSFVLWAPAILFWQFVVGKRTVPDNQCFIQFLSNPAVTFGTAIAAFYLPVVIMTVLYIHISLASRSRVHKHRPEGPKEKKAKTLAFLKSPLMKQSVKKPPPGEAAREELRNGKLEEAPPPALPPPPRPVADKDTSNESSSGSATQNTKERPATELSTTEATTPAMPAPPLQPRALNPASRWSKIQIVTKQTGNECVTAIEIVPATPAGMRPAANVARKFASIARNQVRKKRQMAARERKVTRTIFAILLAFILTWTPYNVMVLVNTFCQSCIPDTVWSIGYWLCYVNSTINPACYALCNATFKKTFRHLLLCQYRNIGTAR
Assay: mAChR M4 cell-based functional assay: calcium mobilization (Fluo-4, FDSS), potentiation of EC20 acetylcholine response in hM4-Gqi5 CHO-K1 cells
Conditions: human M4; for Emax at 30 µM: CHO-K1, % ACh maximum at 30 μM; for EC50: potentiation of EC20 acetylcholine response, calcium mobilization
Summary of the method: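 Readout is the fluorescence-ratio rise at 1 Hz on FDSS, with PAM activity taken as concentration-dependent enhancement of the EC20 acetylcholine response, fitted four-parameter for EC50/Emax. hM4-Gqi5 CHO-K1 cells carried Fluo-4 AM dye; test compounds (11 points, 1:3) preceded EC20 acetylcholine additions at 144 s and 230 s.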

Row | SMILES | Emax at 30 µM | EC50
1 | COCc1cc(=O)n2nc(N3CCc4ncc(-c5ccc(C)o5)cc4C3)c(C)cc2n1 [Compound 1-372, 2-(methoxymethyl)-8-methyl-7-(3-(5-methylfuran-2-yl)-7,8-dihydro-1,6-naphthyridin-6(5H)-yl)-4H-pyrimido[1,2-b] pyridazin-4-one] | 65% | 298 nM
2 | COCc1cc(=O)n2nc(N3CCc4ncc(-c5ccc(OC(F)F)nc5)cc4C3)c(C)c(C)c2n1 [Compound 1-373, 7-(3-(6-(difluoromethoxy)pyridin-3-yl)-7,8-dihydro-1,6-naphthyridin-6(5H)-yl)-2-(methoxymethyl)-8,9-dimethyl-4H-pyrimido[1,2-b]pyridazin-4-one] | 64% | 299 nM
3 | COCc1cc(=O)n2nc(N3CCc4ncc(-c5ccc(OC(F)F)nc5)cc4C3)c(C)cc2n1 [Compound 1-374, 7-(3-(6-(difluoromethoxy)pyridin-3-yl)-7,8-dihydro-1,6-naphthyridin-6(5H)-yl)-2-(methoxymethyl)-8-methyl-4H-pyrimido[1,2-b]pyridazin-4-one] | 67% | 227 nM
4 | Cc1cc(C(F)F)ncc1-c1cnc2c(c1)CN(c1nn3c(=O)ccnc3cc1C)CC2 [Compound 1-375, 7-(3-(6-(difluoromethyl)-4-methylpyridin-3-yl)-7,8-dihydro-1,6-naphthyridin-6(5H)-yl)-8-methyl-4H-pyrimido [1,2-b]pyridazin-4-one] | 75% | 273 nM
5 | Cc1cc2nccc(=O)n2nc1N1CCc2ncc(Cc3cccnc3)cc2C1 [Compound 1-378, 8-methyl-7-(3-(pyridin-3-ylmethyl)-7,8-dihydro-1,6-naphthyridin-6(5H)-yl)-4H-pyrimido[1,2-b]pyridazin-4-one] | 83% | 898 nM
6 | COCc1cc(=O)n2nc(N3CCc4ncc(-c5cnc(Cl)cc5C)cc4C3)c(C)c(C)c2n1 [Compound 1-379, 7-(3-(6-chloro-4-methylpyridin-3-yl)-7,8-dihydro-1,6-naphthyridin-6(5H)-yl)-2-(methoxymethyl)-8,9-dimethyl-4H-pyrimido[1,2-b]pyridazin-4-one] | 109% | 357 nM
7 | COCc1cc(=O)n2nc(N3CCc4ncc(-c5cnn6c5COCC6)cc4C3)c(C)c(C)c2n1 [Compound 1-380, 7-(3-(6,7-dihydro-4H-pyrazolo[5,1-c][1,4]oxazin-3-yl)-7,8-dihydro-1,6-naphthyridin-6(5H)-yl)-2-(methoxymethyl)-8,9-dimethyl-4H-pyrimido[1,2-b] pyridazin-4-one] | 95% | 205 nM
8 | COCc1cc(=O)n2nc(N3CCc4ncc(-c5ncc(C)cc5C)cc4C3)c(C)cc2n1 [Compound 1-381, 7-(3-(3,5-dimethylpyridin-2-yl)-7,8-dihydro-1,6-naphthyridin-6(5H)-yl)-2-(methoxymethyl)-8-methyl-4H-pyrimido[1,2-b] pyridazin-4-one] | 83% | 969 nM
9 | COCc1cc(=O)n2nc(N3CCc4ncc(-c5ncc(F)cc5F)cc4C3)c(C)cc2n1 [Compound 1-382, 7-(3-(3,5-difluoropyridin-2-yl)-7,8-dihydro-1,6-naphthyridin-6(5H)-yl)-2-(methoxymethyl)-8-methyl-4H-pyrimido[1,2-b] pyridazin-4-one] | 79% | 467 nM
10 | COCc1cc(=O)n2nc(N3CCc4ncc(-c5cc(F)ccn5)cc4C3)c(C)cc2n1 [Compound 1-383, 7-(3-(4-fluoropyridin-2-yl)-7,8-dihydro-1,6-naphthyridin-6(5H)-yl)-2-(methoxymethyl)-8-methyl-4H-pyrimido[1,2-b] pyridazin-4-one] | 83% | 647 nM
11 | COCc1cc(=O)n2nc(N3CCc4ncc(-c5cnccc5OC)cc4C3)c(C)cc2n1 [Compound 1-384, 2-(methoxymethyl)-7-(3-(4-methoxypyridin-3-yl)-7,8-dihydro-1,6-naphthyridin-6(5H)-yl)-8-methyl-4H-pyrimido [1,2-b]pyridazin-4-one] | 83% | 1030 nM
